Measurements reported in PubChem BioAssay (NCI).
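96-well plates; 48 h exposure; 5 concentrations. Endpoints by linear interpolation between flanking doses. Not reached: highest tested concentration assigned. GI50 = concentration required for 50% inhibition of growth. TGI: concentration producing complete growth inhibition.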

How the values were obtained:
Assay in all cases: NCI tumour cell line growth inhibition, 48 h
[1] = system: A498 renal
[2] = system: CAKI-1 renal
[3] = system: CCRF-CEM leukemia
[4] = system: HCT-116 colon
[5] = system: NCI-H23 lung
[6] = system: OVCAR-8 ovarian
[7] = system: SK-MEL-2 melanoma
[8] = system: SNB-19 CNS
[9] = system: SW-620 colon
[10] = system: SF-295 CNS

| Compound | GI50 [1] [nM] | TGI [1] [µM] | GI50 [2] [µM] | TGI [2] [µM] | GI50 [3] [µM] | TGI [3] [µM] | GI50 [4] [µM] | TGI [4] [µM] | GI50 [5] [µM] | TGI [5] [µM] | GI50 [6] [µM] | TGI [6] [µM] | GI50 [7] [nM] | TGI [7] [µM] | GI50 [8] [µM] | TGI [8] [µM] | GI50 [9] [nM] | TGI [9] [µM] | TGI [10] [µM] | GI50 [10] [µM] |
| --- | --- | --- | --- | --- | --- | --- | --- | --- | --- | --- | --- | --- | --- | --- | --- | --- | --- | --- | --- | --- |
| CCC(=O)N1C/C(=C/c2ccc(OC)cc2)C(=O)/C(=C/c2ccc(OC)cc2)C1 | 1920 | 3.51 | 2.74 | 9.73 | 1.75 | 8.31 | 0.263 | 0.646 | 2.26 | 5.39 | 2.86 | > 100 | 2530 | 5.38 | 2.93 | 19.3 | 1660 | 3.64 |  |  |
| COc1ccc2c(C3(O)CCNCC3)c[nH]c2c1 |  |  |  | > 100 |  | > 100 |  |  |  | > 100 |  | > 100 |  | > 100 |  | > 100 |  | > 100 | > 100 |  |
| CCCCCCCCCCCCC(SCCNC(=O)CCNC(=O)C(O)C(C)(C)COP(=O)(O)OP(=O)(O)OCC1OC(n2cnc3c(N)ncnc32)C(O)C1OP(=O)(O)O)C(=O)NCC(N)=O (stereo unspecified) |  | > 100 |  |  |  | > 100 |  | > 100 |  | > 100 |  | > 100 |  | > 100 |  | > 100 |  | > 100 | > 100 |  |
| CCCN(CCC)c1c([N+](=O)[O-])cc(S(N)(=O)=O)cc1[N+](=O)[O-] |  |  |  | 26.4 |  | 46.5 |  | 33.8 |  | 32.3 |  | 35.1 |  | 30.5 |  | 41.3 |  | 36 | 32.3 |  |
| Cc1ccc(S(=O)(=O)ON/N=C2/C3OC3[C@@H]3CCCC[C@H]23)cc1 (stereo partly specified) |  |  |  | > 100 |  | > 100 |  |  |  | > 100 |  | > 100 |  | > 100 |  | > 100 |  | > 100 | > 100 |  |
| CC(C)(C)C([O-])=C1C(=O)c2ccccc2C1=O.CC(C)(C)C([O-])=C1C(=O)c2ccccc2C1=O.CC[O-].CC[O-].[Ti+4] |  |  | 28 | 81.7 | 38.8 | > 100 | 37.7 | > 100 | 31.8 | > 100 | 29.3 | 90.1 | 25800 | 85.2 | 40.8 | > 100 | 25500 | > 100 | > 100 | 28.3 |
| C=CCN(N=O)C(=O)N(CCC)CCCC(NC(C)=O)C(=O)NCc1ccccc1 (stereo unspecified) |  | > 100 |  | > 100 |  | > 100 |  |  |  | > 100 |  | > 100 |  | > 100 |  | > 100 |  | > 100 | > 100 |  |
| CC1(C)OC2C(=O)OC(COCc3ccccc3)C2O1 (stereo unspecified) |  | > 100 |  | > 100 |  | > 100 |  | > 100 |  | > 100 |  | > 100 |  | > 100 |  |  |  | > 100 | > 100 |  |
| O=C(O)c1[nH]c(C(=O)O)c(CC(F)(F)C(F)(F)C(F)(F)F)c1CC(F)(F)C(F)(F)C(F)(F)F |  | > 100 |  | > 100 |  | > 100 |  | > 100 |  | > 100 |  | > 100 |  |  |  | > 100 |  | > 100 | > 100 |  |
| Cn1c(=O)c2c(nc3n2CCC(=O)N3)n(C)c1=O |  | > 100 |  | > 100 |  | > 100 |  |  |  | > 100 |  | > 100 |  | > 100 |  | > 100 |  | > 100 | > 100 |  |
| NC(N)=N/N=C/c1c(-c2cc(Cl)sc2Cl)nc2n1CCS2 | 8900 | 16.6 | 12.8 | 23.2 | 8.67 | 19.6 |  |  | 8.77 | 16.7 | 10.3 | 22.1 | 22600 | > 50 |  |  | 10500 | 20.5 | 17.1 | 8.75 |
| [Cl][Sn]([c]1ccccc1)[c]1ccccc1 |  |  | 2.54 | 8.98 | 1.85 | 5.85 | 6.91 | 22.9 | 5.19 | 18.1 | 11.5 | 17.2 | 2650 | 11.9 | 11.6 | 23.8 | 1950 | 4.49 | 35.2 | 19.2 |
| Cc1ccc(-n2c(C)nc3c2C(=O)c2ccccc2C3=O)cc1 |  |  |  |  |  | > 100 |  | 21.4 |  | > 100 |  | > 100 |  | > 100 |  | > 100 |  | > 100 | > 100 |  |
| CCOC(=O)/C=C/c1ccc(C(=O)OCC)[nH]1 | 1610 | 12.1 | 6.36 | > 100 | 6.04 | > 100 | 4.56 | > 100 | 7.16 | > 100 | 5.82 | > 100 |  |  | 24.7 | > 100 | 1290 | > 100 | 41.2 | 3.5 |
| OC1CCC(C2C3CCCCC3C3CCCCC3C2C2CCC(O)CC2)CC1 (stereo unspecified) |  | 32.2 |  | 13 |  |  |  | > 100 |  | > 100 |  | 20.4 |  | 25.3 |  | 32.2 |  | 19.6 | 27.3 |  |
| COC(=O)c1ccc(OCc2ccc3oc(=O)c(-c4ccccc4)nc3c2)cc1 |  |  |  | > 100 |  | 72.7 |  | > 100 |  | > 100 |  | > 100 |  | > 100 |  | > 100 |  | > 100 | > 100 |  |
| COC1C(=O)CCC2(CO2)C1(O)C1(C)OC1CCC(C)C (stereo unspecified) |  | > 100 |  | > 100 |  | > 100 |  | > 100 |  | > 100 |  | > 100 |  |  |  | > 100 |  | > 100 | > 100 |  |
| C=C(CNCCO)[C@@H]1CC[C@]2(CO)CC[C@]3(C)[C@H](CC[C@@H]4[C@@]5(C)CCC(NCCc6ccc(O)cc6)C(C)(C)[C@@H]5CC[C@]43C)[C@@H]12 (stereo partly specified) | 1460 | 2.81 | 1.62 | 3.33 | 0.5 | 2.68 |  |  | 1.77 | 3.45 | 1.46 | 2.8 | 1660 | 3.18 | 1.6 | 3.03 | 468 | 1.85 | 2.96 | 1.51 |
